# Like-named read-outs stand apart in the source and are kept apart here.
# Legend:
# His-tagged NSD2 PWWP1 = target: T1, His-tagged NSD2 PWWP1 (Homo sapiens, UniProt O96028); test: TR-FRET cooperativity (competition) assay: displacement of biotinylated NSD2 ligand UNC7096; assay type: binding
# T1 sequence (O96028 211-350): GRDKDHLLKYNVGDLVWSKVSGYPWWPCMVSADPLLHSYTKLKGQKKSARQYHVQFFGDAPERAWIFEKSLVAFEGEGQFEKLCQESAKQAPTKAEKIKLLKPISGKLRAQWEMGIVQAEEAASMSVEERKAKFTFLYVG
# Source text: Because of the direct interactions observed between FBXO22 and NSD2, we hypothesized that some degree of cooperative binding could facilitate complex stabilization. Therefore, we developed a TR-FRET assay to monitor the interaction between his-tagged NSD2 and a biotinylated NSD2 ligand, UNC7096, that is missing the modality for FBXO22-recruitment (Supplementary Fig. 3D)[20]. Given the positive FRET signal observed when both NSD2 PWWP1 and UNC7096 are present, we used this setup to evaluate the displacement of UNC7096 by UNC10088 in the presence or absence of the FBXO22 FIST domain (Supplementary Fig. 3D). […] Importantly, this FBXO22-dependent enhancement of NSD2 antagonism by UNC10088 was absent when C326 was substituted for alanine (Supplementary Fig. 3F). Taken together, the SCF^FBXO22-NSD2 PWWP1 structure both confirms prior results and provides additional insight into the surfaces that contribute to a cooperative interaction between NSD2 and FBXO22 to promote potent NSD2 polyubiquitination and degradation.
# The TR-FRET assay was adapted to assess cooperativity from the following workflows previously reported[39],[40]. Assays were performed in white, low-volume, flat-bottom, nonbinding 384-well microplates (Greiner, Catalog No. 784904) with a final assay volume of 10 μL per well. The assay buffer contained 20 mM Tris–HCl (pH 7.5) and 150mM NaCl, 0.05% Tween-20 (v/v), 2mM DTT, and 1% DMSO (v/v). LANCE Europium (Eu)-W8044 Streptavidin conjugate (2 nM) and LANCE Ultra ULight-anti6x-His labeled antibodies (10 nM) were used as donor and acceptor fluorophores associated with the tracer ligand and protein, respectively. Final assay concentrations of 63 nM His-tagged NSD2 PWWP1 and 31 nM of UNC7096 (a biotinylated version of the NSD2 ligand) as a tracer ligand were used for compound testing. UNC8732, UNC10088, and UNC10415667 were diluted in a 10-point, 3-fold serial dilution, and indicated compounds were pre-incubated with FBXO22 FIST for 30 min. A master mix of NSD2 PWWP1, UNC7096, and TR-FRET reagents was made prior to its addition to the compounds and/or FBXO22 FIST. The plates were sealed with metallic covers, mixed gently for 1 min, and incubated in the dark for 1 h. After 1 h, the plate was read on an EnVision 2103 plate reader with a 320 nm excitation filter and 615 nm/ 665 nm emission filters simultaneously with a dual mirror D400/D630 and a 100 μs delay. […] Raw TR-FRET signals were normalized to a high inhibition control (10 μM of UNC10088) and negative control (1% DMSO). The normalized TR-FRET signals were plotted against the compound concentrations. […] Ki values were calculated from the IC50s using the tight-binding model[41],[42]. The cooperativity factor (α) was calculated as the ratio of Ki (Binary)/ Ki (Ternary), with α > 1 indicating positive cooperativity between NSD2 PWWP1 and FBXO22 FIST based on its disruption of NSD2 binding to UNC7096.
# BACH1 = test: Western blot of BACH1 in HEK293T cells; assay type: cell-based, human; details: for BACH1 levels by immunoblot: 10 µM, 6 hrs
# Protocol: HEK293T and U2OS were obtained from ATCC and cultured in high-glucose-containing Dulbecco’s Modified Eagle’s Medium (DMEM; Gibco; cat. #11995) supplemented with 10% fetal bovine serum (VWR) and 1% penicillin/streptomycin (Gibco). Cells were treated with either UNC10415667, UNC12149, UNC12567, hemin (Sigma; cat. #H9039), or DMSO control for the indicated times and analyzed by western blot using standard procedures. Briefly, cells were lysed on ice for 15 min in NETN lysis buffer (20 mM Tris pH 8.0, 100 mM NaCl, 0.5 mM EDTA, 0.5% NP40) supplemented with 10 µg/mL aprotinin, 10 µg/mL leupeptin, 10 µg/mL pepstatin A, 1 mM sodium orthovanadate, 1 mM sodium fluoride, and 1 mM AEBSF (4-[two aminoethyl] benzenesulfonyl fluoride). Cell lysates were centrifuged at 20,000×g in a benchtop microcentrifuge at 4 °C for 10 min. Protein concentration was determined by Bradford assay (Bio-Rad; cat. #5000006). Protein concentration was normalized using Laemmli buffer. Samples were heated for 5 min at 95°C in a dry water-bath. Samples were separated on TGX stain free gels (Bio-Rad) transferred to nitrocellulose membrane and blocked in 5% non-fat dry milk (Biorad; cat. #1706404) diluted in 1x TBS-T (137 mM NaCl, 2.7 mM KCl, 25 mM Tris pH 7.6, 1% Tween-20). Primary antibody incubations (Anti-NSD2 (Abcam; Cat# ab75359; Lot# 1093214-1; 1:1000 dilution), Anti-BACH1 (Fortis Life Sciences; Cat# A303-805A; Lot# 1; 1:1000 dilution), and Anti-GAPDH (Santa Cruz Biotechnology; Cat# sc-47724; Lot# C1023; 1:1000 dilution)) were performed overnight at 4 °C. Secondary antibodies (Peroxidase AffiniPure Goat Anti-Rabbit IgG (H + L) (Jackson Immuno; Cat# 111-035-003; 1:5000 dilution) and Peroxidase AffiniPure Goat Anti-Mouse IgG (H + L) (Jackson Immuno; Cat# 115-035-003; 1:5000 dilution)) were incubated for 1 h at room temperature. Blots were developed by chemiluminescence using Pierce ECL (Thermo Fisher Scientific; cat. #32106).
# [1] = compound alone (buffer, no FBXO22 FIST), tracer UNC7096, read-out: IC50, competitive TR-FRET, binding to NSD2 PWWP1
Structure (SMILES),"IC50 (His-tagged NSD2 PWWP1; FBXO22 FIST C326A variant present, read-out: IC50, competitive TR-FRET, in the presence of C326A FIST) [nM]","IC50 (His-tagged NSD2 PWWP1; FBXO22 FIST present, reagents not preincubated, read-out: IC50, competitive TR-FRET, in the presence of FBXO22 FIST without preincubation) [nM]","IC50 (His-tagged NSD2 PWWP1; WT FBXO22 FIST present, compound pre-incubated with FIST 30 min, read-out: IC50, competitive TR-FRET, in the presence of FBXO22 FIST) [nM]",IC50 (His-tagged NSD2 PWWP1; [1]) [nM],BACH1 levels by immunoblot (BACH1),"BACH1 and NSD2 levels upon co-treatment with Hemin (BACH1; 10 µM UNC10415667 and 20 µM Hemin, 6 h)"
O=C1COc2cc(C(=O)N(Cc3ccc(C(=O)Nc4ccc5c(c4)CCN(C(=O)CCCCC(O)S(=O)(=O)O)C5)cc3)C3CC3)ccc2N1 (centres unmarked) [UNC10088],227 ± 10,108,101 ± 8,248 ± 22,remained constant,–
O=Cc1ccc(C(=O)N2CCc3cc(NC(=O)c4ccc(CN(C(=O)c5ccc6c(c5)OCC(=O)N6)C5CC5)cc4)ccc3C2)cc1 [UNC10415667],–,–,–,159 ± 24,unchanged,both BACH1 and NSD2 were degraded

# From paper PMC13316043, “Structural basis of NSD2 degradation via targeted recruitment of SCF-FBXO22” (Nature Communications, 2026)
